Assay [1] concerns mouse intralobular bronchi. Conditions: 300 μM spermine, 15 min pre-treatment.
Experimental: A. Intralobular bronchi were dissected from wild type C57/Bl6 mice (3-4 month of age), mounted upon a wire myograph and bubbled with 95% O2/5% CO2 in the presence of an extracellular solution containing 1 mM Ca^2+o. […] Data are mean±SEM, n=3. B. Intralobular bronchi were dissected from wild type (sm22α-Cre^−/−/floxed-CaSR^+/+) and CaSR knockout (sm22α-Cre^+/+/floxed-CaSR^+/+) mice and were then mounted on a wire myograph, as described in (A). […] Percentage of contraction (upwards deflection from zero of the relaxation curve) or relaxation (downwards deflection from zero of the relaxation curve) were calculated from the tension data. Data are mean±SEM, n=3 per genotype. […] Second/third order intralobular bronchi were dissected from the lung left lobes of WT or KO mice, mounted in small vessel myograph using stainless steel wires (d=40 micrometers) and maintained in a Krebs solution bubbled with 95% O2/5% CO2. Bronchi were left to settle at 37° C. for 30 min, then they were gradually stretched to reach 2 mN of passive tension. After 30 min equilibration time, reactivity of the bronchi was tested by addition of 40 mM KCl to the bath. […] Data are shown as mean±SEM percentage of contraction normalized to the maximal contraction in control. […] Bronchi were left to settle at 37° C. for 30 min, then they were gradually stretched to reach 2 mN of passive tension. […]
Assay [2] deals with T1, human CaSR (Homo sapiens, UniProt P41180).
T1 construct: expressed in transfected cells; control HEK-0 with empty vector
T1 sequence (P41180 20-1078): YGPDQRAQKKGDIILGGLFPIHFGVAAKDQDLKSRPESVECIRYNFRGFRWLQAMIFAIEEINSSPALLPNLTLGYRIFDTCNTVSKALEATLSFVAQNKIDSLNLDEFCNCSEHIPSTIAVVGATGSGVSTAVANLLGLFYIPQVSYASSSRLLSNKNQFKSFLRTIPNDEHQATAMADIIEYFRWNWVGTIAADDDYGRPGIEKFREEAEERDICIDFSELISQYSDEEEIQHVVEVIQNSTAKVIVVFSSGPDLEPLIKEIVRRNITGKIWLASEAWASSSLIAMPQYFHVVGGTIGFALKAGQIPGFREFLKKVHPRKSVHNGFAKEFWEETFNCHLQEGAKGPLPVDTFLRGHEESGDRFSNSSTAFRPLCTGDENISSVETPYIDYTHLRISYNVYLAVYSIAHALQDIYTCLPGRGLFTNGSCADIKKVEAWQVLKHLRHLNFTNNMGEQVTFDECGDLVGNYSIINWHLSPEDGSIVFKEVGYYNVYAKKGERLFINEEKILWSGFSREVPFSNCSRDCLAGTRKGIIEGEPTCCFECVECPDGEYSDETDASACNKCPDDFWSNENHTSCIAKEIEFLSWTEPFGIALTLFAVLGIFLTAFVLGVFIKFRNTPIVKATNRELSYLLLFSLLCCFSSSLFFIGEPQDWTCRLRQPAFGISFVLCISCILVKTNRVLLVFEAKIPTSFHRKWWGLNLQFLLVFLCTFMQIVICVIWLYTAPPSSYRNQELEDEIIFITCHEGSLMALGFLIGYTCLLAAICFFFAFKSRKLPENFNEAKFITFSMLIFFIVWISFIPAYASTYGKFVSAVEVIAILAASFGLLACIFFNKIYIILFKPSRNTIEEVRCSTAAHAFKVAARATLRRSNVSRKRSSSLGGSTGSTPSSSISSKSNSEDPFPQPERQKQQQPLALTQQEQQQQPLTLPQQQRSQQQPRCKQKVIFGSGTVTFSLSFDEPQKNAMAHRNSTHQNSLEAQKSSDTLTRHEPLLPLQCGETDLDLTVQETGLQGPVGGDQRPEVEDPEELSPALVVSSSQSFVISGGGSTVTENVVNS
Nature of the assay: Intracellular Ca2+ (fura-2, F/F0) in HEK293 cells stably expressing human CaSR. It counts as cell-based. Conditions: HEK-CaSR; for CaSR activation (Ca2+i increase) by agonist: 300 nM poly-L-arginine, 1 mM spermine, 10 μg/ml ECP, no response in HEK-0. The procedure:
The structurally unrelated calcilytic NPS2143 also prevents spermine-induced CaSR activation (D). […] Note that ECP serum concentrations in asthmatic subjects are believed to be 30 μg/ml. n=121-487 cells, 3-9 experiments. Data are mean±SEM. Where differences are significant, they are shown above the bars. FIG. 6. Ca^2+o activates the CaSR, an effect which can be prevented by the calcilytic NPS89636. HEK293 cells stably expressing the human CaSR (HEK-CaSR) or transfected with empty vector (HEK-0) were loaded with 4 μM fura-2 AM and exposed to 5 mM Ca^2+o in the absence or presence of the calcilytic, NPS89636 (100 nM). Data are from >3 experiments and 121-386 cells. Significant differences are shown above the bars. […] The ability of a structurally unrelated calcilytic, NPS2143 (1-10 μM), was also tested on spermine-induced Ca^2+i mobilisation in HEK-CaSR. Ca^2+i release was measured as peak/baseline fluorescence (F/F0). Note that ECP serum concentrations in asthmatic subjects increase with disease severity and are believed to reach 30 μg/ml.

The subject of assay [3] is mouse intralobular bronchi. Conditions: spermine 10 μM-3 mM cumulative, ACh-precontracted to ~50% tone.
Experimental: A. Intralobular bronchi were dissected from wild type C57/Bl6 mice (3-4 month of age), mounted upon a wire myograph and bubbled with 95% O2/5% CO2 in the presence of an extracellular solution containing 1 mM Ca^2+o. […] Data are mean±SEM, n=3. B. Intralobular bronchi were dissected from wild type (sm22α-Cre^−/−/floxed-CaSR^+/+) and CaSR knockout (sm22α-Cre^+/+/floxed-CaSR^+/+) mice and were then mounted on a wire myograph, as described in (A). […] Percentage of contraction (upwards deflection from zero of the relaxation curve) or relaxation (downwards deflection from zero of the relaxation curve) were calculated from the tension data. Data are mean±SEM, n=3 per genotype. […] Second/third order intralobular bronchi were dissected from the lung left lobe of WT or CaSR KO mice, mounted in small vessel myograph using stainless steel wires (d=40 micrometers) in a Krebs' solution bubbled with 95% O2/5% CO2. Bronchi were left to settle at 37° C. for 30 min, then gradually stretched to reach 2 mN of passive tension. After 30 min of equilibration time, the reactivity of the bronchi was tested by addition of 40 mM KCl to the bath. […] Data are shown as mean±SEM percentage change from baseline, where upwards deflection from zero represents contraction, whilst downwards deflection from zero of the relaxation curve represents relaxation. […] WT: n=6; KO: n=7. *p<0.05; **p<0.01.
In assay [4] the target is T2, CaSR in human ASM cells (Homo sapiens, UniProt P41180).
T2 construct: endogenous in cells; host or cells: primary human airway smooth muscle cells explanted from bronchial biopsies
T2 sequence (P41180 20-1078): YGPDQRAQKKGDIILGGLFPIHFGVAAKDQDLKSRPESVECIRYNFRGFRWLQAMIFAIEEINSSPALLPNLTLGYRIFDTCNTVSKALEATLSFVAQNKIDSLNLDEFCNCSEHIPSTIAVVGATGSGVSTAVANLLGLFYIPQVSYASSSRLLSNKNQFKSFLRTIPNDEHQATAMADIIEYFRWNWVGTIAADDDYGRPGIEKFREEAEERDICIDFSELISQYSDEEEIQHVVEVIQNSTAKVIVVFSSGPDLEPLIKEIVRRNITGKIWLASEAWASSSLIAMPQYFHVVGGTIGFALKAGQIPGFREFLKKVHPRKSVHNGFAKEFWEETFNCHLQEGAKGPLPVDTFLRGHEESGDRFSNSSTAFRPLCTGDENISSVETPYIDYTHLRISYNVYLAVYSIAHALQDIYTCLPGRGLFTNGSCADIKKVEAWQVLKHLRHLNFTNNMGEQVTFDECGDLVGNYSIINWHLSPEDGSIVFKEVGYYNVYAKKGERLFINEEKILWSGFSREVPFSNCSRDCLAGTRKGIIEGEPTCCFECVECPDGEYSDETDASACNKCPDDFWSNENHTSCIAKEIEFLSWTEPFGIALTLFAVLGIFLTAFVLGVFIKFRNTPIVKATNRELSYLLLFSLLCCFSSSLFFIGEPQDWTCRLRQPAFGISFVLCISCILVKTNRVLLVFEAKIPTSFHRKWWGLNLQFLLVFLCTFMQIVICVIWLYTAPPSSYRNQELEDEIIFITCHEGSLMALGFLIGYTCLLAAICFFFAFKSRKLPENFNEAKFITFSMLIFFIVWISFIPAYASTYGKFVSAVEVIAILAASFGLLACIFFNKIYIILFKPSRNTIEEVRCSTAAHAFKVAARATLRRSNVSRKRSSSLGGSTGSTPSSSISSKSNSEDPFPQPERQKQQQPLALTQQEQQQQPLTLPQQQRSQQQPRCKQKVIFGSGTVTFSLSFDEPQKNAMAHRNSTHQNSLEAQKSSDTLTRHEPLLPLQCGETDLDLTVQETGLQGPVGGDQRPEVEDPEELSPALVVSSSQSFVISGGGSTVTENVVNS
Kind of assay: Intracellular Ca2+ signalling (Fura-2) in primary human airway smooth muscle cells. It counts as cell-based. Conditions: spermine 0.1-3 mM; ECPs 1-10 micrograms/ml. The procedure:
Human ASM cells, loaded with Fura-2 AM, show elevation of [Ca^2+]i (F/F0) when exposed to increased [Ca^2+]o (A, n=7) or spermine (B, n=35; mean±SEM). […] In the presence of 5 mM [Ca^2+]o (saturating for CaSR, see A), the response to ECP, but not to BK, is ablated, consistent with CaSR activation by ECP. D), transfection of a “dominant negative” CaSR (CaSR DN) prevents spermine-dependent increase in [Ca^2+]i in human ASM cells, an effect which cannot be seen in MOCK-transfected cells.
Effects of Polycations in Human ASM Cells In Vitro
Once primary human airway smooth muscle cells cell cultures were established at 80-90% confluence using the protocol described above, the endogenous CaSR was activated by exposing these cells to pathophysiologically relevant concentrations of ECPs (1-10 micrograms/ml), spermine (0.1-3 mM) and Ca^2+o (1-5 mM) to determine the effects on intracellular Ca^2+i signalling (using the Ca^2+-sensitive fluorescent dye, Fura-2).

Assay [5] deals with BalbC mice. Nature of the assay: Polycation-induced bronchial hyper-reactivity (Penh, plethysmography) in methacholine-challenged conscious mice. Conditions: nebulised poly-L-arginine 3 μM, 1 hour; conscious BalbC mice. The format is in vivo, mouse. The procedure: FIG. 5. […] prevent polycation-evoked BHR in methacholine-challenged mice. […] After the treatment, animals were placed in plethysmography chambers (Buxco, USA), allowed to settle for 10 minutes, and then they were challenged with methacholine (MCh, 0.1-10 mg/ml). Responses to methacholine obtained from the animals that have not received any treatments are shown in black symbols. From our previous estimates, 1-5% of the nebulised drug reaches the lung epithelium. […] FIG. 12. […] Male BalbC mice ( 25 g) were purchased from Harlan 1 week before the experimental protocols were performed. […] On the day of the experiment, the body weight of each mouse was recorded and mice were allowed to acclimatise to the chamber for at least 10 min before recordings were made. Then, respiratory activity was recorded for 5 min, to establish baseline value for Penh. […] Data were recorded for 3 minutes after each aerosol administration. The Penh values at each MCh concentration were averaged and expressed as a proportion of baseline Penh (Penh before treatment). […] The Penh values at each MCh concentration were averaged and expressed as a proportion of that day's baseline Penh (Penh after treatment). […] Effect of Polycations and of the Calcilytic NPS89636 on Bronchial Hyper-Reactivity in Unrestrained, Conscious Mice In Vivo Baseline airway hyper-responsiveness was measured by plethysmography. […]

This note sets out measurements from patent US9861606B2, “Therapeutic for treating inflammatory lung disorders” (University College Cardiff Consultants Limited, priority 2012, dated 2018).

In the case of `NCCCNCCCCNCCCN` [spermine], the “Effect on ACh-induced contraction, CaSR KO bronchi” value in assay [1] (CaSR knock-out mice) was “not seen”. In assay [1] (wild-type mice), the “Effect on ACh-induced contraction, WT bronchi” value was “increases the response to acetylcholine-mediated contraction”. The “CaSR activation (Ca2+i increase) by agonist” value in assay [2] is listed as “responds”. For the same molecule, the “Direct bronchoconstriction, CaSR KO bronchi” value in assay [3] (knock-out mice) was “not in the intralobular bronchi of knock-out mice”. Also, the “Direct bronchoconstriction, WT bronchi” value in assay [3] (wild-type mice) is on record as “directly evokes bronchoconstriction”. Also, in assay [4], the “Increase in Ca2+i evoked by agonist in human ASM cells” value was “evoke increases in Ca^2+i”.
For the molecule poly-L-arginine [reference compound], the “Effect on response to methacholine (Penh)” value in assay [5] is “significantly enhanced”. The “CaSR activation (Ca2+i increase) by agonist” value in assay [2] is given as “responds”.
For `CC(C)(Cc1ccc2ccccc2c1)NC[C@@H](O)COc1cccc(Cl)c1C#N.Cl` [NPS2143, reference compound], the “Effect of calcilytic on spermine-induced CaSR activation (Ca2+i mobilisation)” value in assay [2] (1-10 μM calcilytic) is given as “prevented CaSR activation by spermine”.

B1: ECPs: eosinophil cationic protein, novel agonist at the human CaSR (protein, UniProt P12724 28-160, looked up)
Eosinophil cationic protein: RPPQFTRAQWFAIQHISLNPPRCTIAMRAINNYRWRCKNQNTFLRTTFANVVNVCGNQSIRCPHNRTLNNCHRSRFRVPLLHCDLINPGAQNISNCTYADRPGRRFYVVACDNRDPRDSPRYPVVPVHLDTTI
As to B1, the “CaSR activation (Ca2+i increase) by agonist” value in assay [2] was “agonists at the CaSR”. Besides, the “Increase in Ca2+i evoked by agonist in human ASM cells” value in assay [4] was “evoke increases in Ca^2+i”.
